Consider 8 molecules from patent US10165779B2, “Substituted pyrazolylpyrazole derivative and use of same as herbicide” (KYOYU AGRI CO., LTD., priority 2015, dated 2019).

Holding throughout (type): in vivo
The subject of data set [1] is Digitaria ciliaris. Briefly: Weed foliar treatment test (Test 3, 1.0 to 2.0 leaf stage). To be noted: foliar spray at 1.0 to 2.0 leaf stage of Digitaria ciliaris, 3 weeks. On the procedure:
(§1) Soil was filled into a 1/6000 are pot followed by seeding with Digitaria ciliaris, Chenopodium album and Amaranthus retroflexus, covering with soil, and cultivating in a glass greenhouse at an average atmospheric temperature of 25° C.
(§2) Wettable powders of Target Compound (I) shown in Table 1 prepared in compliance with the preparation examples were diluted with water to the prescribed amount of chemical and uniformly sprayed onto the weeds using 150 liters of sprayed water per 10 are when Digitaria ciliaris had grown to the 1.0 to 2.0 leaf stage.
(§3) After treating for 3 weeks in a glass greenhouse at an average atmospheric temperature of 25° C., the herbicidal efficacy thereof was investigated.
(§4) Evaluation of herbicidal efficacy was carried out in the same manner as the above-mentioned Test Example 1.

Data set [2] has as its system Chenopodium album. The description is as above. The conditions noted are these: foliar spray at 1.0 to 2.0 leaf stage of Digitaria ciliaris, 3 weeks. On the procedure: as §1, §2, §3, §4
Data set [3] concerns Amaranthus retroflexus. Described as above. The conditions noted are these: foliar spray at 1.0 to 2.0 leaf stage of Digitaria ciliaris, 3 weeks. On the procedure: as §1, §2, §3, §4
The test system of data set [4] is Digitaria ciliaris. In words: Weed foliar treatment test (Test 4, 4.0 to 5.0 leaf stage). To be noted: 10 g a.i./10a; foliar spray at 4.0 to 5.0 leaf stage of Digitaria ciliaris (plant height 10 cm to 15 cm); 20 days. On the procedure:
(§5) Field soil was filled into a 1/4500 are pot followed by seeding with Digitaria ciliaris and Galinsoga parviflora, covering with soil and cultivating in a glass greenhouse at an average atmospheric temperature of 25° C.
(§6) Wettable powders of Target Compound (I) shown in Table 1 prepared in compliance with the preparation examples were diluted with water to the prescribed amount of chemical and uniformly sprayed onto the weeds using 100 liters of sprayed water per 10 are when Digitaria ciliaris had grown to the 4.0 to 5.0 leaf stage (plant height: 10 cm to 15 cm).
(§7) After treating for 20 days in a glass greenhouse at an average atmospheric temperature of 25° C., the herbicidal efficacy thereof was investigated.
as §4

The next data set has as its system Galinsoga parviflora. Described as above. To be noted: 10 g a.i./10a; foliar spray at 4.0 to 5.0 leaf stage of Digitaria ciliaris; 20 days. As for the experimental part: as §5, §6, §7, §4
In a further data set the test system is Echinochloa crus-galli. In words: Paddy herbicidal activity test. The conditions noted are these: irrigated paddy pot, treated at 3.5 leaf stage of Echinochloa crus-galli, 30 days. On the procedure: (§8) After treating for 30 days in a glass greenhouse at an average atmospheric temperature of 30° C., the herbicidal efficacy thereof was investigated. Evaluation of herbicidal efficacy was carried out by comparing growth inhibition rate (%) with an untreated group, while evaluation of phytotoxicity was carried out by comparing growth inhibition rate (%) with the state of a complete eradication group, and were evaluated at 11 levels indicated below. […] 2: 20% to less than 30% 3: 30% to less than 40% 4: 40% to less than 50% 5: 50% to less than 60% 6: 60% to less than 70% 7: 70% to less than 80% […]

The next data set concerns Scirpus juncoides. In words: Paddy herbicidal activity test. To be noted: irrigated paddy pot, 30 days. As for the experimental part: as §8
In a further data set the test system is Monochoria vaginalis. In words: Paddy herbicidal activity test. The conditions noted are these: irrigated paddy pot, 30 days. As for the experimental part:
as §8

Data set [5] relates to Digitaria ciliaris. Briefly: Farming soil treatment test. The conditions noted are these: soil surface spray prior to weed growth, 30 days. On the procedure:
(§9) Field soil was filled into a 1/6000 are pot followed by seeding with Digitaria cilaris, Chenopodium album and Amaranthus retroflexus and covering with soil.
(§10) Wettable powders of compounds of formula (I) shown in Table 1 prepared in compliance with the preparation examples were diluted. with water to the prescribed amount of chemical and uniformly sprayed onto each soil surface layer using 100 liters of sprayed water per 10 are prior to weed growth following seeding.
(§11) After treating for 30 days in a glass greenhouse at an average atmospheric temperature of 30° C., the herbicidal efficacy thereof was investigated.
as §4

For data set [6], the system named is Chenopodium album. Briefly: Farming soil treatment test. The conditions noted are these: soil surface spray prior to weed growth, 30 days. On the procedure:
as §9, §10, §11, §4

Data set [7] has as its system Amaranthus retroflexus. In words: Farming soil treatment test. To be noted: soil surface spray prior to weed growth, 30 days. On the procedure:
as §9, §10, §11, §4

For a further data set, the system named is Oryza sativa. In words: Paddy herbicidal activity test, phytotoxicity to transplanted rice. The conditions noted are these: rice transplanted at 2.0 leaf stage, 30 days. As for the experimental part:
as §8

For the molecule `CCOC(=O)N(C(=O)OC)c1c(C#N)cnn1-c1nn2c(c1Cl)CCCC2` [Compound 1, Methyl N-(3-chloro-4,5,6,7-tetrahydropyrazolo[1,5-a]pyridine-2-yl)-4-cyanopyr azol-5-yl)-N-ethoxycarbonyl Carbamate], the “herbicidal efficacy Digitaria ciliaris” value in the data set on Digitaria ciliaris [1] (5g a.i./10a) is 9 (9: 90% to less than 100%); in the data set with Digitaria ciliaris [1] (10g a.i./10a) it was 10 (10: 100%); with Digitaria ciliaris [4], 9 (9: 90% to less than 100%); with Digitaria ciliaris [5] (5g a.i./10a), 9 (9: 90% to less than 100%); in the data set on Digitaria ciliaris [5] (10g a.i./10a), 9 (9: 90% to less than 100%). Also, the “herbicidal efficacy Chenopodium album” value in the data set with Chenopodium album [2] (5g a.i./10a) was 10 (10: 100%); with Chenopodium album [2] (10g a.i./10a) it was 10 (10: 100%); with Chenopodium album [6] (5g a.i./10a), 9 (9: 90% to less than 100%); with Chenopodium album [6] (10g a.i./10a) it was 10 (10: 100%). For the same molecule, the “herbicidal efficacy Amaranthus retroflexus” value in the data set with Amaranthus retroflexus [3] (5g a.i./10a) is 10 (10: 100%); with Amaranthus retroflexus [3] (10g a.i./10a) it was 10 (10: 100%); with Amaranthus retroflexus [7] (5g a.i./10a) it was 9 (9: 90% to less than 100%); in the data set with Amaranthus retroflexus [7] (10g a.i./10a), 9 (9: 90% to less than 100%). Moreover, in the data set with Galinsoga parviflora, the “herbicidal efficacy Galinsoga parviflora” value is recorded as 10 (10: 100%). Besides, the entries for the “herbicidal efficacy Echinochloa crus-galli” value with Echinochloa crus-galli (1g a.i./10a) and in the data set on Echinochloa crus-galli (5g a.i./10a) were 9 (9: 90% to less than 100%) and 10 (10: 100%), respectively. Also, the “herbicidal efficacy Scirpus juncoides” value in the data set with Scirpus juncoides (1g a.i./10a) and in the data set on Scirpus juncoides (5g a.i./10a) was 9 (9: 90% to less than 100%) throughout. The “herbicidal efficacy Monochoria vaginalis” value with Monochoria vaginalis (1g a.i./10a) and in the data set with Monochoria vaginalis (5g a.i./10a) was 10 (10: 100%) each time.
As for `COC(=O)N(C(=O)OC)c1c([N+](=O)[O-])cnn1-c1nn2c(c1Cl)CCCC2` [Compound 3], in the data set on Digitaria ciliaris [4], the “herbicidal efficacy Digitaria ciliaris” value is 10 (10: 100%). The “herbicidal efficacy Galinsoga parviflora” value in the data set with Galinsoga parviflora is 10 (10: 100%).
Turning to `COC(=O)N(C(=O)OC)c1c(C#N)cnn1-c1nn2c(c1Br)CCCC2` [Compound 4], the “herbicidal efficacy Digitaria ciliaris” value in the data set with Digitaria ciliaris [1] (5g a.i./10a), in the data set on Digitaria ciliaris [1] (10g a.i./10a), in the data set on Digitaria ciliaris [4], with Digitaria ciliaris [5] (5g a.i./10a) and with Digitaria ciliaris [5] (10g a.i./10a) was 10 (10: 100%) in each case. The “herbicidal efficacy Chenopodium album” value in the data set on Chenopodium album [2] (5g a.i./10a) is reported as 10 (10: 100%); in the data set with Chenopodium album [2] (10g a.i./10a) it was 10 (10: 100%); in the data set on Chenopodium album [6] (5g a.i./10a), 9 (9: 90% to less than 100%); with Chenopodium album [6] (10g a.i./10a) it was 10 (10: 100%). Moreover, the “herbicidal efficacy Amaranthus retroflexus” value in the data set on Amaranthus retroflexus [3] (5g a.i./10a), with Amaranthus retroflexus [3] (10g a.i./10a), in the data set on Amaranthus retroflexus [7] (5g a.i./10a) and with Amaranthus retroflexus [7] (10g a.i./10a) was 10 (10: 100%) each time. Besides, the “herbicidal efficacy Galinsoga parviflora” value in the data set with Galinsoga parviflora was 10 (10: 100%). Also, the “phytotoxicity Oryza sativa” value in the data set on Oryza sativa (1g a.i./10a) is reported as 0 (0 (exponent): 0% to less than 10% (growth inhibition rate)); with Oryza sativa (5g a.i./10a) it was 1 (1: 10% to less than 20%). Besides, the “herbicidal efficacy Echinochloa crus-galli” value with Echinochloa crus-galli (1g a.i./10a) and with Echinochloa crus-galli (5g a.i./10a) was 10 (10: 100%) throughout. The “herbicidal efficacy Scirpus juncoides” value is 9 (9: 90% to less than 100%) in the data set with Scirpus juncoides (1g a.i./10a) and 10 (10: 100%) with Scirpus juncoides (5g a.i./10a). In addition, the “herbicidal efficacy Monochoria vaginalis” value in the data set on Monochoria vaginalis (1g a.i./10a) and with Monochoria vaginalis (5g a.i./10a) was 10 (10: 100%) throughout.
Take `COC(=O)N(C(=O)OC)c1c([N+](=O)[O-])cnn1-c1nn2c(c1Br)CCCC2` [Compound 5]: the “herbicidal efficacy Digitaria ciliaris” value was 9 (9: 90% to less than 100%) in the data set on Digitaria ciliaris [1] (5g a.i./10a); 10 (10: 100%) in the data set on Digitaria ciliaris [1] (10g a.i./10a); 9 (9: 90% to less than 100%) in the data set on Digitaria ciliaris [4]; 9 (9: 90% to less than 100%) in the data set on Digitaria ciliaris [5] (5g a.i./10a); 9 (9: 90% to less than 100%) in the data set on Digitaria ciliaris [5] (10g a.i./10a). Besides, the “herbicidal efficacy Chenopodium album” value in the data set on Chenopodium album [2] (5g a.i./10a), in the data set on Chenopodium album [2] (10g a.i./10a), in the data set on Chenopodium album [6] (5g a.i./10a) and with Chenopodium album [6] (10g a.i./10a) was 10 (10: 100%) throughout. In addition, the “herbicidal efficacy Amaranthus retroflexus” value in the data set on Amaranthus retroflexus [3] (5g a.i./10a), in the data set with Amaranthus retroflexus [3] (10g a.i./10a), in the data set with Amaranthus retroflexus [7] (5g a.i./10a) and in the data set with Amaranthus retroflexus [7] (10g a.i./10a) was 10 (10: 100%) each time. Moreover, the “herbicidal efficacy Galinsoga parviflora” value with Galinsoga parviflora was 10 (10: 100%). In addition, the “phytotoxicity Oryza sativa” value with Oryza sativa (1g a.i./10a) and with Oryza sativa (5g a.i./10a) was 1 (1: 10% to less than 20%) in each case. For the same molecule, the “herbicidal efficacy Echinochloa crus-galli” value in the data set with Echinochloa crus-galli (1g a.i./10a) and with Echinochloa crus-galli (5g a.i./10a) was 9 (9: 90% to less than 100%) each time. Further, the “herbicidal efficacy Scirpus juncoides” value in the data set with Scirpus juncoides (1g a.i./10a) and with Scirpus juncoides (5g a.i./10a) was 10 (10: 100%) each time. Also, the “herbicidal efficacy Monochoria vaginalis” value in the data set with Monochoria vaginalis (1g a.i./10a) and in the data set with Monochoria vaginalis (5g a.i./10a) was 10 (10: 100%) in each case.
With `CC(C)OC(=O)N(C(=O)OC(C)C)c1c(C#N)cnn1-c1nn2c(c1Cl)CCCC2` [Compound 12], the “herbicidal efficacy Digitaria ciliaris” value in the data set with Digitaria ciliaris [4] was 10 (10: 100%). For the same molecule, in the data set on Galinsoga parviflora, the “herbicidal efficacy Galinsoga parviflora” value is 10 (10: 100%).
Consider `CC(C)COC(=O)N(C(=O)OCC(C)C)c1c(C#N)cnn1-c1nn2c(c1Cl)CCCC2` [Compound 13], for which, in the data set on Digitaria ciliaris [4], the “herbicidal efficacy Digitaria ciliaris” value is 10 (10: 100%). The “herbicidal efficacy Galinsoga parviflora” value in the data set on Galinsoga parviflora is on record as 10 (10: 100%).
For `C=CCOC(=O)N(C(=O)OCC=C)c1c([N+](=O)[O-])cnn1-c1nn2c(c1Cl)CCCC2` [Compound 15], in the data set with Digitaria ciliaris [4], the “herbicidal efficacy Digitaria ciliaris” value is given as 10 (10: 100%). In addition, the “herbicidal efficacy Galinsoga parviflora” value in the data set with Galinsoga parviflora is given as 10 (10: 100%).
For `CCOC(=O)Nc1c([N+](=O)[O-])cnn1-c1nn2c(c1Cl)CCCC2` [Control agent 2.28, reference compound], the entries for the “phytotoxicity Oryza sativa” value with Oryza sativa (1g a.i./10a) and in the data set with Oryza sativa (5g a.i./10a) were 0 (0 (exponent): 0% to less than 10% (growth inhibition rate)) and 1 (1: 10% to less than 20%), respectively.
